{
  "source": "paper PMC4806491",
  "about": "“The milk-derived fusion peptide, ACFP, suppresses the growth of primary human ovarian cancer cells by regulating apoptotic gene expression and signaling pathways” (BMC Cancer, 2016)",
  "key": {"[1]": {"tested_on": "primary ovarian cancer cells", "format": "cell-based, human", "protocol": "Fresh primary ovarian tumor tissues that were assessed and classified as serous ovarian adenocarcinoma (III-IV grade) according to WHO criteria were collected from 53 ovarian cancer patients who underwent initial debulking surgery at the first affiliated hospital of Anhui Medical University between June 2012 and June 2014. All patients had not received adjuvant therapies, such as chemotherapy or radiotherapy, prior to surgery. For comparison, normal ovarian glandular epithelium cells (NOGECs) were cultured from fresh primary normal ovarian tissues harvested from 7 patients with uterine fibromas, which were confirmed as negative for any neoplastic disease by pathological examination. Prior to tissue deposition, all patients signed written consent forms confirming their donation of tissue for research purposes according to the Declaration of Helsinki. This study was approved by the Anhui Medical University Review Board. Tumor or normal ovarian tissues were cut into small 1.0 mm^3 pieces, rinsed two times in phosphate buffered saline (PBS) and digested with 0.25 % trypsin in a sterile centrifuge tube at 37 °C for 30 min. To obtain a single cell suspension cell, digested tissues were filtered with a 100 μm cell strainer. Cells were collected by centrifugation at 1000 rpm for five minutes, and the cell pellet was re-suspended in Dulbecco’s modified eagle medium (DMEM) supplemented with 10 % fetal bovine serum (FBS). Cells were subsequently cultured in DMEM containing 0.1 mg/L epidermal growth factor (EGF), 0.1 mg/L insulin-like growth factor (IGF) and 0.1 mg/L beta-estradiol with 10 % FBS in 5 % CO2 at 37 °C. Once cells reached 70 to 80 % confluence, cell culture medium was drained from the flask, and cells were digested with 0.25 % collagenase II until approximately 1/3 of the cells fell to the bottom of the dish by eye using a microscope. Due to their initial shedding, most fibroblasts were eliminated by collagenase digestion. The remaining cells were cultured in 5 % CO2 at 37 °C. To determine purity, cells were analyzed using immunofluorescence of cytokeratin 7 (for ovarian cancer cells) or cytokeratin 19 (for normal ovarian epithelium cells).\nPrimary ovarian cancer cells were seeded into 96-well plates in sextuplicate at a starting density of 5 × 10^3 cells/well and incubated with ACFP at the concentrations: 0 (as control), 5 × 10^−6, 5 × 10^−5, 5 × 10^−4, 5 × 10^−3, 5 × 10^−2, 5 × 10^−1 and 5 g/L for 24, 48 and 72 h, respectively. Cells treated with paclitaxel at 5 × 10^−4 g/L were included in the same plate as a positive control. Cell viability was later measured using the WST-1 (water-soluble tetrazolium 1) cell viability and cytotoxicity assay kit (Beyotime, Haimen, China) according to the manufacturer’s instructions. The percent viability of cells was calculated using the formula to calculate the cell viability ratio (VR): VR (%) = (the experimental group A450nm value/control group A450nm value) × 100 %. To assess general toxicity of ACFP, viability of normal ovarian cells treated with ACFP was assayed using the same procedure. The effect of ACFP was compared with LfcinB and PGPIPN (the products of Shanghai Sangon Biological Engineering Technology, China). Each experiment was performed in two independent sets."}, "[2]": {"tested_on": "primary ovarian cancer cells", "assay": "Western blot of Bcl-xl, Bax, Akt, Caspase-3, CDC25C and CyclinB1 proteins", "format": "cell-based, human", "conditions": "48 h", "protocol": "Proteins were isolated from primary ovarian cancer cells harvested after ACFP treatment, separated by SDS-PAGE and transferred to PVDF membrane using the standard protocol. After blocking with 5 % (w/v) dry skim milk, membranes were incubated with primary antibodies (mouse monoclonal Bcl-xl, Bax, Akt, Caspase-3, CDC25C, CyclinB1 and β-Actin antibodies, 1:1000 dilution) according to the manufacturer’s instructions and later incubated with a horseradish peroxidase conjugated secondary antibody (goat anti-mouse IgG, 1:8000 dilution). The proteins were detected with the enhanced chemiluminescence (ECL) system followed by exposure to X-ray film. The β-Actin was used as a loading control. Two independent experiments were performed. Digital images were captured by Gel DocTM gel documentation system (Bio-Rad, USA) and intensities were quantified using Quantity-One software version 4.62 (Bio-Rad, USA)."}},
  "note": "Read-outs that look alike come from different tables or passages of the source. Positions of bridges follow the written chain, without caps; N, C: chain ends. Residues, ends and D or L forms follow the SMILES beside them.",
  "data": [
    {"smiles": "CC[C@H](C)[C@@H]1NC(=O)[C@H](CO)NC(=O)[C@@H]2CCCN2C(=O)[C@H](C)NC(=O)CNC(=O)[C@H](CC(C)C)NC(=O)[C@H](CCCCN)NC(=O)[C@H](CCCCN)NC(=O)[C@H](CCSC)NC(=O)[C@H](CCCNC(=N)N)NC(=O)[C@H](Cc2c[nH]c3ccccc23)NC(=O)[C@H](CCC(N)=O)NC(=O)[C@H](Cc2c[nH]c3ccccc23)NC(=O)[C@H](CCCNC(=N)N)NC(=O)[C@H](CCCNC(=N)N)NC(=O)[C@@H](NC(=O)[C@H](CCCCN)NC(=O)[C@@H](N)Cc2ccccc2)CSSC[C@@H](C(=O)N[C@H](C(=O)N[C@@H](CCCNC(=N)N)C(=O)N[C@@H](CCCNC(=N)N)C(=O)N[C@@H](C)C(=O)N[C@@H](Cc2ccccc2)C(=O)NCC(=O)NCC(=O)NCC(=O)NCC(=O)N[C@@H](CO)C(=O)N2CCC[C@H]2C(=O)NCC(=O)N2CCC[C@H]2C(=O)N[C@H](C(=O)N2CCC[C@H]2C(=O)N[C@@H](CC(N)=O)C(=O)O)[C@@H](C)CC)C(C)C)NC(=O)[C@H]([C@@H](C)O)NC1=O", "note": "[ACFP] (H-FKCRRWQWRMKKLGAPSITCVRRAFGGGGSPGPIPN-OH; disulfide 3-20; N-terminus and C-terminus assumed)", "values": [
      {"measurement": "IC50, cell viability", "setting": "[1]; 24 h", "value": 11.5, "unit": "µg/mL"},
      {"measurement": "IC50, cell viability", "setting": "[1]; 48 h", "value": 1.63, "unit": "µg/mL"},
      {"measurement": "IC50, cell viability", "setting": "[1]; 72 h", "value": 0.388, "unit": "µg/mL"},
      {"measurement": "growth of human primary ovarian cells", "setting": "[1]; different concentrations, 48 h, in vitro, n=12, Figure S1", "value": "decreased growth"},
      {"measurement": "protein levels of Bax and Caspase-3", "setting": "[2]; different concentrations, compared to control-treated group", "value": "elevated"},
      {"measurement": "protein levels of Bcl-xl, Akt, CDC25C and CyclinB1", "setting": "[2]; increasing drug concentration", "value": "gradually decreased"}
    ]}
  ]
}
